# What was measured:
# isolated colons = experiment: Isolated perfused colon, migrating muscular contractions (aged mouse; loperamide in young mouse)
# Description: Isolated colons were mounted in an apparatus that permits continuous perfusion through the lumen, and the monitoring of the velocity, frequency and pressure of migrating muscular contractions (MMCs). Similar to the experience in humans, aging in mice is associated with diminished colonic peristaltic activity.
# In humans, opiates markedly diminish GI motility and suppress fluid secretion causing constipation. […] When loperamide is introduced into the lumen of a young mouse colonic peristalsis is inhibited. When squalamine is added in presence of continued loperamide perfusion, the dysmotility is overridden.
# [1] = tested on: colons from WT (1 yr old FVB/NJ) mice; experiment: Isolated colon motility, WT mice; set-up: species or system mouse
# Description: FIGS. 14A-14B show additional effects of squalamine in mice.
# Parkinson's disease is associated with varying degrees of constipation, typically beginning decades before diagnosis, and all too often has a profound negative impact on quality of life. It is believed that the ENS in PD is damaged earlier but by the same processes that damage the neurons of the CNS. In our clinical experience oral administration to several individuals with advanced Parkinson's disease corrected long standing constipation within days of initiation of treatment. We explored whether the human experience could be reproduced in the mouse. In the experiments illustrated below studies of colonic motility were conducted using organs from WT (1 yr old FVB/NJ) or PD mice, in which the murine αSynuclein gene has been excised and replaced by several copies of the human αSynuclein gene driven by the normal murine promoter.
# The isolated colon from the PD strain presents a more sluggish peristaltic wave than that from the WT animal (black columns).
# [2] = tested on: single IPAN of the myenteric plexus; experiment: IPAN electrophysiology, jejunum with luminal epithelium stripped; set-up: species or system mouse; conditions: squalamine applied directly onto the myenteric plexus
# Description: Intrinsic primary afferent neurons (IPANs) are believed to be normally stimulated indirectly, through release of neurotransmitters from the epithelium. Since squalamine can be readily transported across an intact intestinal epithelial layer, and can enter a neuron, altering the surface potential of its plasma membrane, an experiment was designed to determine whether the effects of squalamine on the IPAN required the presence of the luminal epithelium.
# Jejunum was prepared as described in the previous experiment, except the luminal epithelium was manually stripped off the organ using forceps. Squalamine was applied directly onto the myenteric plexus from the luminal surface. Electrophysiological studies were repeated to monitor the activity of a single IPAN within the area of the release of compound. Within 5 seconds the IPAN began a series of spontaneous discharges (FIG. 13A). […] Squalamine appears to be capable of communicating directly with the ENS, in contrast to most substances that communicate with the ENS only indirectly, via their effects on the epithelium.
# vagal afferent fibers = experiment: Multiunit firing of a jejunal branch of the vagus (mesenteric nerve); set-up: species or system mouse; conditions: luminal squalamine
# Description: Squalamine was applied into the lumen by gravity feed 11 min after beginning the recording. […] The Control represents background discharge before applying squalamine, and the Peak gives the average firing frequency during a 3 min period at the peak of the response.
# To determine whether the electrical activity stimulated by the luminal application of squalamine was principally contained within the ENS of the intestine, or whether it communicated information rostrally to the CNS, a further experiment was designed in which multiunit fiber firing rates were measured from a single jejunal branch of the vagus. Squalamine was introduced 11 minutes after recordings were begun. Vagal afferent firing frequency increased almost immediately thereafter to 3 fold the initial rate within a few minutes.
# C. elegans model of PD = conditions: cited from earlier work
# [3] = tested on: patients with PD and constipation; experiment: Phase 2 trial Stage 1 (single escalating dose): prokinetic response (CSBM within 24 hours); assay type: in vivo, human
# Description: FIGS. 16A-16B show prokinetic activity of squalamine (ENT-01, a synthetic squalamine salt comprising squalamine as the active ion). […] Patients with baseline CSBM<1 required a higher dose (mean, 192 mg) of squalamine than patients with CSBM≥1 (mean, 120 mg).
# Tolerability limits included diarrhea or vomiting.
# [4] = tested on: patients with PD and constipation; experiment: Phase 2 trial Stage 1: adverse events
# Description: In Stage 1, ten (10) PD patients received a single escalating dose of squalamine (ENT-01) every 3-7 days beginning at 25 mg and continuing up to 200 mg or the limit of tolerability, followed by 2-weeks of wash-out. Duration of this part of the trial was 22-57 days. The 10 subjects in the sentinel group were assigned to Cohort 1 and participated in 8 single dosing periods. Tolerability limits included diarrhea or vomiting.
# Each dose period was staggered, so that subjects 1-2 were administered a single dose of the drug at the lowest dose of 25 mg. Once 24 hours have elapsed, and provided there are no safety concerns, the patient was sent home and brought back on day 4-8 for the next dose. During the days the subjects are home, they completed the daily diaries and e-mailed them to the study coordinators. Subjects 3-10 were dosed after the first 2 subjects have been observed for 72 hours, i.e. on Day 4. Subjects 1-2 were also brought back on Day 4-8 and given a single dose of 50 mg. Once another 24 hours have elapsed and provided there are no safety concerns, the patients were all sent home and instructed to return on Day 7 for the next dosing level. This single dosing regimen was continued until each subject was given a single dose of 200 mg or has reached a dose limiting toxicity (DLT). DLT was the dose which induces repeated vomiting, diarrhea, abdominal pain or symptomatic postural hypotension within 24 hours of dosing.
# Adverse events were coded using the current version of MedDRA. Severity of AEs were assessed by investigators according to CTCAE (v4.03): Grade 1 is labeled as Mild, Grade 2 as Moderate, and Grade 3 and above as Severe. […] The number (percentage) of subjects who experienced an AE during escalation and fixed dosing periods were summarized by dose level and overall for each stage. The denominator for calculating the percentages were based on the number of subjects ever exposed to each dose and overall.
# [5] = Stage 1, 10 dosed, Unrelated to ENT-01
compound,measurement,setting,value
CC(C)[C@@H](CC[C@@H](C)[C@H]1CC[C@H]2[C@@H]3[C@H](O)C[C@H]4C[C@@H](NCCCNCCCCN)CC[C@]4(C)[C@H]3CC[C@]12C)OS(=O)(=O)O [squalamine],colonic peristalsis,isolated colons; squalamine into the colonic lumen of the aged mouse,dramatic stimulation of peristalsis
same,dysmotility caused by loperamide,"isolated colons; young mouse colon, squalamine added in presence of continued loperamide perfusion",overridden
same,speed of the colonic peristaltic wave,"[1]; WT colon, FIG. 14B",stimulates the speed of the colonic peristaltic wave
same,force of peristaltic contractions,"[1]; WT colon, squalamine added to lumen, FIG. 14A",increases the force of contractions
same,colon migrating motor complex (MMC) peak pressure waves,"[1]; intraluminal application, legend of FIG. 14A",no apparent effect
same,MMC propagation velocity from oral to anal,"[1]; intraluminal application, legend of FIG. 14B",increased
same,time to onset of spontaneous discharges of the IPAN,[2],≤ 5 s
same,persistence of increased firing rate,vagal afferent fibers,at least 20 minutes
same,vagal afferent firing frequency relative to the initial rate,vagal afferent fibers; within a few minutes,3 fold
same,muscle paralysis,C. elegans model of PD; C. elegans model of PD (Perni et al. 2017),complete reversal of muscle paralysis
"CC(C)[C@@H](CC[C@@H](C)[C@H]1CC[C@H]2[C@@H]3[C@H](O)C[C@H]4C[C@@H](NCCCNCCCCN)CC[C@]4(C)[C@H]3CC[C@]12C)OS(=O)(=O)O (single isomer, unassigned; ent-01) [ENT-01]",cumulative response rate,[3]; 25 mg,25%
same,cumulative response rate,[3]; 200 mg (maximum),80%
same,formation of aggregates of αS,C. elegans model of PD; in vivo (Perni et al. 2017),inhibit the formation of aggregates
same,AEs confined to the GI tract,[4]; Stage 1,88%
same,"Diarrhea, patients","[4]; Stage 1, 4/10",40%
same,"nausea, patients","[4]; Stage 1, 4/10",40%
same,"Abdominal pain, Mild","[4]; Stage 1, 10 dosed","2(20) n, %"
same,"Abdominal pain, Moderate","[4]; Stage 1, 10 dosed","3(30) n, %"
same,"Blood in urine, Moderate","[4]; Stage 1, 10 dosed","0 n, %"
same,"Diarrhea, Mild","[4]; Stage 1, 10 dosed","1(10) n, %"
same,"Diarrhea, Moderate","[4]; Stage 1, 10 dosed","3(30) n, %"
same,"Diarrhea, Severe","[4]; Stage 1, 10 dosed","0 n, %"
same,"Difficulty falling asleep, Mild","[4]; Stage 1, 10 dosed","0 n, %"
same,"Difficulty falling asleep, Moderate","[4]; Stage 1, 10 dosed","0 n, %"
same,"Dizziness, Mild","[4]; Stage 1, 10 dosed","0 n, %"
same,"Dizziness, Moderate","[4]; Stage 1, 10 dosed","0 n, %"
same,"Flatulence, Mild","[4]; Stage 1, 10 dosed","2(20) n, %"
same,"Flatulence, Moderate","[4]; Stage 1, 10 dosed","0 n, %"
same,"Headache, Mild","[4]; Stage 1, 10 dosed","1(10) n, %"
same,"Headache, Moderate","[4]; Stage 1, 10 dosed","0 n, %"
same,"Increased urinary frequency, Mild","[4]; Stage 1, 10 dosed","0 n, %"
same,"Increased urinary frequency, Moderate","[4]; Stage 1, 10 dosed","0 n, %"
same,"Loss of appetite, Moderate","[4]; Stage 1, 10 dosed","0 n, %"
same,"Lower GI bleed, Severe","[4]; Stage 1, 10 dosed","0 n, %"
same,"Nausea, Mild","[4]; Stage 1, 10 dosed","4(40) n, %"
same,"Nausea, Moderate","[4]; Stage 1, 10 dosed","0 n, %"
same,"Skin lesions-rash, Mild","[4]; Stage 1, 10 dosed","0 n, %"
same,"Skin lesions-rash, Moderate","[4]; Stage 1, 10 dosed","0 n, %"
same,"Urinary retention, Mild","[4]; Stage 1, 10 dosed","0 n, %"
same,"Urinary retention, Moderate","[4]; Stage 1, 10 dosed","0 n, %"
same,"Vomiting, Mild","[4]; Stage 1, 10 dosed","1(10) n, %"
same,"Vomiting, Moderate","[4]; Stage 1, 10 dosed","0 n, %"
same,"Worsening acid reflux, Mild","[4]; Stage 1, 10 dosed","0 n, %"
same,"Worsening acid reflux, Moderate","[4]; Stage 1, 10 dosed","0 n, %"
same,"Worsening hemorrhoid, Mild","[4]; Stage 1, 10 dosed","0 n, %"
same,"Worsening hemorrhoid, Moderate","[4]; Stage 1, 10 dosed","0 n, %"
same,"Blood in urine, Mild",[4]; [5],"1(10) n, %"
same,"Loss of appetite, Mild",[4]; [5],"1(10) n, %"
same,Common adverse events by dose: Diarrhea,"[4]; Stage 1, dose 25 mg",1
same,Common adverse events by dose: Nausea,"[4]; Stage 1, dose 25 mg",0
same,Common adverse events by dose: Vomiting,"[4]; Stage 1, dose 25 mg",0
same,Common adverse events by dose: Diarrhea,"[4]; Stage 1, dose 50 mg",1
same,Common adverse events by dose: Nausea,"[4]; Stage 1, dose 50 mg",0
same,Common adverse events by dose: Vomiting,"[4]; Stage 1, dose 50 mg",0
same,Common adverse events by dose: Diarrhea,"[4]; Stage 1, dose 75 mg",1
same,Common adverse events by dose: Nausea,"[4]; Stage 1, dose 75 mg",0
same,Common adverse events by dose: Vomiting,"[4]; Stage 1, dose 75 mg",0
same,Common adverse events by dose: Diarrhea,"[4]; Stage 1, dose 100 mg",0
same,Common adverse events by dose: Nausea,"[4]; Stage 1, dose 100 mg",1
same,Common adverse events by dose: Vomiting,"[4]; Stage 1, dose 100 mg",1
same,Common adverse events by dose: Diarrhea,"[4]; Stage 1, dose 125 mg",1
same,Common adverse events by dose: Nausea,"[4]; Stage 1, dose 125 mg",2
same,Common adverse events by dose: Vomiting,"[4]; Stage 1, dose 125 mg",1
same,Common adverse events by dose: Diarrhea,"[4]; Stage 1, dose 150 mg",1
same,Common adverse events by dose: Nausea,"[4]; Stage 1, dose 150 mg",0
same,Common adverse events by dose: Vomiting,"[4]; Stage 1, dose 150 mg",0
same,Common adverse events by dose: Diarrhea,"[4]; Stage 1, dose 175 mg",1
same,Common adverse events by dose: Nausea,"[4]; Stage 1, dose 175 mg",1
same,Common adverse events by dose: Vomiting,"[4]; Stage 1, dose 175 mg",0
same,Common adverse events by dose: Diarrhea,"[4]; Stage 1, dose 200 mg",0
same,Common adverse events by dose: Nausea,"[4]; Stage 1, dose 200 mg",2
same,Common adverse events by dose: Vomiting,"[4]; Stage 1, dose 200 mg",0

# From patent US11083735B2, “Methods for treating sleep disorders, sleep disturbances, and related symptoms using aminosterol compositions” (Enterin, Inc., priority 2017, dated 2021)
